Assay results published in US12306535B2, “Photoacid generator for chemically amplified photoresists for deep ultra violet and extreme ultraviolet lithography” (International Business Machines Corporation, priority 2022, dated 2025).

Assay: Acid-dissociation constant relative to tris(trifluoromethylsulfonyl)methane
Assay type: physicochemical
Details: compared with tris(trifluoromethylsulfonyl)methane

Compound	acid-dissociation constant of acids generated upon UV exposure
N#Cc1[b-]2c(C#N)c(C#N)c(C#N)c(C#N)c2c(C#N)c(C#N)c1C#N.c1ccc([S+](c2ccccc2)c2ccccc2)cc1 [17B, triphenylsulfonium 1,2,3,4,5,6,7,8-octacyanobenzo[a]borinine]	higher than that of tris(trifluoromethylsulfonyl)methane
diphenyliodonium bis(1,2,2-tricyanoethen-1-yl)-(1,1,2,4,5,5-hexacyanopent-1,4-dien-3-yl)borane [17C]	higher than that of tris(trifluoromethylsulfonyl)methane
N#Cc1[b-]2c(C#N)c(C#N)c(C#N)c(C#N)c2c(C#N)c(C#N)c1C#N.c1ccc([S+]2CCCC2)cc1 [17F, phenylthiolanium 1,2,3,4,5,6,7,8-octacyanobenzo[a]borinine]	higher than that of tris(trifluoromethylsulfonyl)methane
N#Cc1[b-]2c(C#N)c(C#N)c(C#N)c(C#N)c2c(C#N)c(C#N)c1C#N.c1ccc([I+]c2ccccc2)cc1 [17D, diphenyliodonium 1,2,3,4,5,6,7,8-octacyanobenzo[a]borinine]	higher than that of tris(trifluoromethylsulfonyl)methane
phenylthiolanium bis(1,2,2-tricyanoethen-1-yl)-(1,1,2,4,5,5-hexacyanopent-1,4-dien-3-yl)borane [17E]	higher than that of tris(trifluoromethylsulfonyl)methane
triphenylsulfonium bis(1,2,2-tricyanoethen-1-yl)-(1,1,2,4,5,5-hexacyanopent-1,4-dien-3-yl)borane [17A]	higher than that of tris(trifluoromethylsulfonyl)methane

Assay: not given
Details: relative to triphenylantimony and triphenylbismuth; cited from earlier work

Compound	mean lethal dose LD50
triphenyltin	one to two orders of magnitude lower

Assay: not given
Details: smaller than that of tris(trifluoromethylsulfonyl)methane; cited from earlier work

Compound	acid-dissociation constant
CC1(C)C2CCC1(CS(=O)(=O)O)C(=O)C2 (stereo not drawn) [camphorsulfonic anions]	about 18 orders of magnitude
p-toluenesulfonate [p-toluenesulfonate anions]	about 18 orders of magnitude
